Test results: patent US9951077B2, “Aminopyridazinone compounds as protein kinase inhibitors” (ETERNITY BIOSCIENCE INC., priority 2014, dated 2018)

biological target: Btk (Homo sapiens (Human), UniProt Q06187); assay: Btk kinase assay (ADP-Glo); type: biochemical; details: ATP 1.2 μM, 60 minutes, room temperature; read-out: BTK enzyme IC50
Experimental: The Btk kinase assay was performed using a ADP-Glo Btk kinase assay kit purchased from Promega (Madison, Wis.). The assay was conducted according to the protocols provided in the assay kit. In brief, the enzyme reaction was carried out in the kinase reaction buffer containing Btk (2 ng/μl), ATP (1.2 μM), poly GT peptide (0.3 μM), DTT (40 nM), MnCl2 (1.4 mM), and 1×kinase buffer (included in the kit) in the presence or absence of the tested articles at various concentrations in 384-well plate at room temperature (22±1° C.) for 60 minutes. The final reaction volume for each reaction was 10 μl. Then, 4 μl of ADP-Glo reagent (included in the kit) was added into the reaction and the plate was further incubated for another 40 minutes to terminate the reaction and deplete the remaining ATP. Finally, 10 μl of the kinase detection reagent was added into each reaction to simultaneously convert ADP to ATP and allow the newly synthesized ATP to be measured by a plate-reading luminometer (Victor X5 2030 multilabel reader, PerkinElmer). IC50 value was calculated using appropriate programs in GraphPad Prism by plotting the logarithm of the concentration versus percent inhibition as compared with a vehicle (DMSO) control.

Sequence of Btk (Q06187 whole entry): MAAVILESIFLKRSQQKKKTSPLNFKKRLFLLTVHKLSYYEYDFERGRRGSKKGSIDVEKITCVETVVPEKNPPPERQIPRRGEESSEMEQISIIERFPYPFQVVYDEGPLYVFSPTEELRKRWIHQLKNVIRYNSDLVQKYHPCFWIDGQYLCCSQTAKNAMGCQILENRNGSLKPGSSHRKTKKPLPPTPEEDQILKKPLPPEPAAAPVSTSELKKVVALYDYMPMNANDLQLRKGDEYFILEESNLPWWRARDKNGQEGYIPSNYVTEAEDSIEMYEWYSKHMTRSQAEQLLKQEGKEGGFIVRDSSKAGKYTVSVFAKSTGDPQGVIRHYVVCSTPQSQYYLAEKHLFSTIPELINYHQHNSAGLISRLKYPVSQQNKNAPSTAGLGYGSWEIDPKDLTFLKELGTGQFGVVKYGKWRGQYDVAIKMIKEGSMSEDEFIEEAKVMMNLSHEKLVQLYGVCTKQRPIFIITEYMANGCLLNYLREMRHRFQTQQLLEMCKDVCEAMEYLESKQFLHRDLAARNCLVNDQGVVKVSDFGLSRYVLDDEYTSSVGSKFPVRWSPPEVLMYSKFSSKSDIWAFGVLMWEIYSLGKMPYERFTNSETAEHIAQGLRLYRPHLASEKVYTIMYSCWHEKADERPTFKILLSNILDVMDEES

Row | SMILES | IC50
1 | C=CC(=O)N1CCC[C@H](n2cc(-c3ccc(Oc4c(F)cccc4F)cc3)c3c(N)n[nH]c(=O)c32)C1 [Example 114, (S)-1-(1-acryloylpiperidin-3-yl)-4-amino-3-(4-(2,6-difluorophenoxy)phenyl)-1H-pyrrolo[2,3-d]pyridazin-7(6H)-one] | 10 to 1000 nM
2 | C=CC(=O)N1CCC[C@@H](n2cc(-c3ccc(Oc4ccccc4F)cc3)c3c(N)n[nH]c(=O)c32)C1 [Example 56, (R)-1-(1-acryloylpiperidin-3-yl)-4-amino-3-(4-(2-fluorophenoxy)phenyl)-1H-pyrrolo[2,3-d]pyridazin-7(6H)-one] | ≤ 10 nM
3 | C/C=C/C(=O)N1CCC[C@@H](n2cc(-c3ccc(Oc4ccccc4)cc3)c3c(N)n[nH]c(=O)c32)C1 [Example 25, 4-amino-1-[(3R)-1-[(E)-but-2-enoyl]-3-piperidyl]-3-(4-phenoxyphenyl)-6H-pyrrolo[2,3-d]pyridazin-7-one] | 10 to 1000 nM
4 | COC/C=C/C(=O)N1CCC[C@@H](n2cc(-c3ccc(Oc4ccccc4)cc3)c3c(N)n[nH]c(=O)c32)C1 [Example 37, 4-amino-1-[(3R)-1-[(E)-4-methoxybut-2-enoyl]-3-piperidyl]-3-(4-phenoxyphenyl)-6H-pyrrolo[2,3-d]pyridazin-7-one] | 1000 to 100000 nM
5 | C=CC(=O)N1CCCC(n2cc(-c3ccc(OC)c(Cl)c3)c3c(N)n[nH]c(=O)c32)C1 (stereo not shown) [Example 53, 1-(1-acryloylpiperidin-3-yl)-4-amino-3-(3-chloro-4-methoxyphenyl)-1H-pyrrolo[2,3-d]pyridazin-7(6H)-one] | ≤ 10 nM
6 | C=CC(=O)Nc1cccc(-n2cc(-c3ccc(Oc4ccccc4F)cc3)c3c(N)n[nH]c(=O)c32)c1 [Example 91, N-(3-(4-amino-3-(4-(2-fluorophenoxy)phenyl)-7-oxo-6,7-dihydro-1H-pyrrolo[2,3-d]pyridazin-1-yl)phenyl)acrylamide] | 10 to 1000 nM
7 | C=CC(=O)N1CC(Cn2cc(-c3ccc(Oc4ccccc4)cc3)c3c(N)n[nH]c(=O)c32)C1 [Example 12, 4-amino-3-(4-phenoxyphenyl)-1-[(1-prop-2-enoylazetidin-3-yl)methyl]-6H-pyrrolo[2,3-d]pyridazin-7-one] | 10 to 1000 nM
8 | CN(C)CC#CC(=O)N1CC[C@@H](n2cc(-c3ccc(Oc4ccccc4F)cc3)c3c(N)n[nH]c(=O)c32)C1 [Example 99, (R)-4-amino-1-(1-(4-(dimethylamino)but-2-ynoyl)pyrrolidin-3-yl)-3-(4-(2-fluorophenoxy)phenyl)-1H-pyrrolo[2,3-d]pyridazin-7(6H)-one] | ≤ 10 nM
9 | C=CC(=O)N1C[C@H](n2cc(-c3ccc(Oc4ccccc4)cc3)c3c(N)n[nH]c(=O)c32)CC(F)(F)C1 [Example 14, (R)-1-(1-acryloyl-5,5-difluoropiperidin-3-yl)-4-amino-3-(4-phenoxyphenyl)-1H-pyrrolo[2,3-d]pyridazin-7(6H)-one] | ≤ 10 nM
10 | C=CC(=O)N1CCC[C@@H](n2c(Cl)c(-c3ccc(Oc4ccccc4)cc3)c3c(N)n[nH]c(=O)c32)C1 [Example 80, (R)-1-(1-acryloylpiperidin-3-yl)-4-amino-2-chloro-3-(4-phenoxyphenyl)-1H-pyrrolo[2,3-d]pyridazin-7(6H)-one] | 10 to 1000 nM
11 | CN(C)C/C=C/C(=O)N1CCCC(n2cc(-c3ccc(Oc4ccc(Cl)cc4)cc3)c3c(N)n[nH]c(=O)c32)C1 (stereo not shown) [Example 65, 4-amino-3-[4-(4-chlorophenoxy)phenyl]-1-[1-[(E)-4-(dimethylamino)but-2-enoyl]-3-piperidyl]-6H-pyrrolo[2,3-d]pyridazin-7-one] | 10 to 1000 nM
12 | CN(C)C/C=C/C(=O)N1CCC[C@@H](n2cc(-c3ccc(Oc4c(F)cccc4F)cc3)c3c(N)n[nH]c(=O)c32)C1 [Example 59, 4-amino-3-[4-(2,6-difluorophenoxy)phenyl]-1-[(3R)-1-[(E)-4-(dimethylamino)but-2-enoyl]-3-piperidyl]-6H-pyrrolo[2,3-d]pyridazin-7-one] | 10 to 1000 nM
13 | CC(C)N(C)C/C=C/C(=O)N1CCC[C@@H](n2cc(-c3ccc(Oc4ccccc4)cc3)c3c(N)n[nH]c(=O)c32)C1 [Example 16, 4-amino-1-[(3R)-1-[(E)-4-[isopropyl(methyl)amino]but-2-enoyl]-3-piperidyl]-3-(4-phenoxyphenyl)-6H-pyrrolo[2,3-d]pyridazin-7-one] | ≤ 10 nM
14 | C=CC(=O)N1CCC[C@@H](n2cc(-c3ccc(Oc4ccccc4Cl)cc3)c3c(N)n[nH]c(=O)c32)C1 [Example 70, (R)-1-(1-acryloylpiperidin-3-yl)-4-amino-3-(4-(2-chlorophenoxy)phenyl)-1H-pyrrolo[2,3-d]pyridazin-7(6H)-one] | 10 to 1000 nM
15 | Nc1n[nH]c(=O)c2c1c(-c1ccc(Oc3ccccc3)cc1)cn2[C@@H]1CCCN(C(=O)/C=C/CN2CCOCC2)C1 [Example 35, 4-amino-1-[(3R)-1-[(E)-4-morpholinobut-2-enoyl]-3-piperidyl]-3-(4-phenoxyphenyl)-6H-pyrrolo[2,3-d]pyridazin-7-one] | ≤ 10 nM
16 | CC#CC(=O)N1CCC[C@@H](n2cc(-c3ccc(Oc4c(F)cccc4F)cc3)c3c(N)n[nH]c(=O)c32)C1 [Example 117, (R)-4-amino-1-(1-(but-2-ynoyl)piperidin-3-yl)-3-(4-(2,6-difluorophenoxy)phenyl)-1H-pyrrolo[2,3-d]pyridazin-7(6H)-one] | 10 to 1000 nM
17 | CN(C)C/C=C/C(=O)N1CCC(Cn2cc(-c3ccc(Oc4ccccc4)cc3)c3c(N)n[nH]c(=O)c32)C1 (stereo not shown) [Example 43, 4-amino-1-[[1-[(E)-4-(dimethylamino)but-2-enoyl]pyrrolidin-3-yl]methyl]-3-(4-phenoxyphenyl)-6H-pyrrolo[2,3-d]pyridazin-7-one] | 10 to 1000 nM
18 | CN(C)C/C=C/C(=O)N1CC[C@@H](n2cc(-c3ccc(Oc4ccccc4)cc3)c3c(N)n[nH]c(=O)c32)C1 [Example 39, 4-amino-1-[(3R)-1-[(E)-4-(dimethylamino)but-2-enoyl]pyrrolidin-3-yl]-3-(4-phenoxyphenyl)-6H-pyrrolo[2,3-d]pyridazin-7-one] | ≤ 10 nM
19 | C=CC(=O)N1CCCC(n2cc(-c3ccc(Oc4cccc(F)c4)cc3)c3c(N)n[nH]c(=O)c32)C1 (stereo not shown) [Example 62, 1-(1-acryloylpiperidin-3-yl)-4-amino-3-(4-(3-fluorophenoxy)phenyl)-1H-pyrrolo[2,3-d]pyridazin-7(6H)-one] | 10 to 1000 nM
20 | CCCC(=O)N1CC[C@@H](n2cc(-c3ccc(Oc4c(F)cccc4F)cc3)c3c(N)n[nH]c(=O)c32)C1 [Example 118, (R)-4-amino-1-(1-butyrylpyrrolidin-3-yl)-3-(4-(2,6-difluorophenoxy)phenyl)-1H-pyrrolo[2,3-d]pyridazin-7(6H)-one] | 1000 to 100000 nM
21 | N#CN1CCC[C@@H](n2cc(-c3ccc(Oc4ccccc4)cc3)c3c(N)n[nH]c(=O)c32)C1 [Example 20, (R)-3-(4-amino-7-oxo-3-(4-phenoxyphenyl)-6,7-dihydro-1H-pyrrolo[2,3-d]pyridazin-1-yl)piperidine-1-carbonitrile] | 10 to 1000 nM
22 | CN(C)C/C=C/C(=O)N1CCC[C@@H](n2cc(-c3ccc(Oc4ccccc4)cc3)c3c(N)n[nH]c(=O)c32)C1 [Example 26, 4-amino-1-[(3R)-1-[(E)-4-(dimethylamino)but-2-enoyl]-3-piperidyl]-3-(4-phenoxyphenyl)-6H-pyrrolo[2,3-d]pyridazin-7-one] | ≤ 10 nM
23 | CN(C)C/C=C/C(=O)N1CCCC(n2cc(-c3ccc(Oc4ccccc4)cc3)c3c(N)n[nH]c(=O)c32)C1 (stereo not shown) [Example 38, 4-amino-1-[1-[(E)-4-(dimethylamino)but-2-enoyl]-3-piperidyl]-3-(4-phenoxyphenyl)-6H-pyrrolo[2,3-d]pyridazin-7-one] | ≤ 10 nM
24 | C=CC(=O)N1CCC[C@@H](n2cc(-c3ccc(Oc4ccc(Cl)c(Cl)c4)c(OC)c3)c3c(N)n[nH]c(=O)c32)C1 [Example 72, (R)-1-(1-acryloylpiperidin-3-yl)-4-amino-3-(4-(3,4-dichlorophenoxy)-3-methoxyphenyl)-1H-pyrrolo[2,3-d]pyridazin-7(6H)-one] | 10 to 1000 nM
25 | C=CC(=O)N1CC[C@H](n2cc(-c3ccc(Oc4ccccc4)cc3)c3c(N)n[nH]c(=O)c32)C1 [Example 3, 4-amino-3-(4-phenoxyphenyl)-1-[(3S)-1-prop-2-enoylpyrrolidin-3-yl]-6H-pyrrolo[2,3-d]pyridazin-7-one] | 10 to 1000 nM
26 | CN(C/C=C/C(=O)N1CCC[C@@H](n2cc(-c3ccc(Oc4ccccc4)cc3)c3c(N)n[nH]c(=O)c32)C1)C(=O)OC(C)(C)C [Example 17, tert-butyl N-[(E)-4-[(3R)-3-[4-amino-7-oxo-3-(4-phenoxyphenyl)-6H-pyrrolo[2,3-d]pyridazin-1-yl]-1-piperidyl]-4-oxo-but-2-enyl]-N-methyl-carbamate] | 10 to 1000 nM
27 | N#CN1CCC[C@@H](n2cc(-c3ccc(Oc4ccccc4)c(F)c3)c3c(N)n[nH]c(=O)c32)C1 [Example 85, (R)-3-(4-amino-3-(3-fluoro-4-phenoxyphenyl)-7-oxo-6,7-dihydro-1H-pyrrolo[2,3-d]pyridazin-1-yl)piperidine-1-carbonitrile] | 10 to 1000 nM
28 | COc1cc(-c2cn([C@@H]3CCCN(C(=O)/C=C/CN(C)C)C3)c3c(=O)[nH]nc(N)c23)ccc1Oc1ccc(Cl)c(Cl)c1 [Example 73, 4-amino-3-[4-(3,4-dichlorophenoxy)-3-methoxy-phenyl]-1-[(3R)-1-[(E)-4-(dimethylamino)but-2-enoyl]-3-piperidyl]-6H-pyrrolo[2,3-d]pyridazin-7-one] | 10 to 1000 nM
